Patent US8431597B2, “Benzimidazole derivatives” (Pfizer Inc., priority 2007, dated 2013)

Target: T1, Smoothened (SMO) (Mus musculus, UniProt P56726)
T1 construct: C3H10T1/2 cells (ATCC #CCL-226) were split and seeded; endogenous in cells; host or cells: C3H10T1/2 (ATCC #CCL-226)
Test: Smoothened (SMO)/Sonic Hedgehog (SHh) Transient Transcriptional Activation Assay (Gli-luciferase reporter in C3H10T1/2 cells)
Type: cell-based, murine
Details: C3H 10T1/2, 2 μM compound; transfected C3H10T1/2 cells, recombinant human SHh 250 ng/mL, 20 hours, luciferase readout; read-out: SMO CELL % INHIBITION @ 2 μM
Outline: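 C3H10T1/2 cells transiently transfected with a murine Gli-responsive firefly luciferase reporter plus pEGFP were serum-starved 20 h in 0.5% calf serum. Compound (2 μM to 2 nM final) was added with recombinant human SHh at 250 ng/mL final for 20 h at 37 °C. Read-out was Dual-Glo luminescence.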

T1 sequence (P56726 33-793): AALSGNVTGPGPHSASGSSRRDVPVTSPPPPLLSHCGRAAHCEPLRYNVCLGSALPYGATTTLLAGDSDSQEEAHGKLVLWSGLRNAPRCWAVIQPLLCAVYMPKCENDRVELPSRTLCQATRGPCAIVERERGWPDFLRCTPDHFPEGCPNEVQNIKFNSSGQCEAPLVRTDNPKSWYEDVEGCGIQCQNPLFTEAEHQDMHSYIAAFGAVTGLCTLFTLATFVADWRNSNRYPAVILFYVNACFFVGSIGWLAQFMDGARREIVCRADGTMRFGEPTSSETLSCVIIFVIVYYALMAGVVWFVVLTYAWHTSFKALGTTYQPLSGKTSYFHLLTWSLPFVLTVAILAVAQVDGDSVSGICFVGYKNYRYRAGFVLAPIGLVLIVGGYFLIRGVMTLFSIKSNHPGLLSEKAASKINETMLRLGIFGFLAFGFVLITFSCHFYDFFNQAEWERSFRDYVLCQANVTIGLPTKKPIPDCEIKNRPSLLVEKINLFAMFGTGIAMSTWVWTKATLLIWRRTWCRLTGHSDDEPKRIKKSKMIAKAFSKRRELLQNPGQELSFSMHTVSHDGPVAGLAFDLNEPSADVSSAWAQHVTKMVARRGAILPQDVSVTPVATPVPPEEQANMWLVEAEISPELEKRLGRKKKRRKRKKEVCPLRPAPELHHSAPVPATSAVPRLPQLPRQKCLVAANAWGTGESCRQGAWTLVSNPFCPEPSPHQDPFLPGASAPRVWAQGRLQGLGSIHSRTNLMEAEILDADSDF

| SMILES | inhibition at 2 µM |
| --- | --- |
| CN1CC[C@@H](NC(=O)c2ccc3c(c2Cl)OCCO3)C[C@@H]1c1nc2cc(Cl)ccc2[nH]1 [Example 145, 5-chloro-N-[(2R,4R)-2-(5-chloro-1H-benzimidazol-2-yl)-1-methylpiperidin-4-yl]-2,3-dihydro-1,4-benzodioxine-6-carboxamide triflouroacetate] | 106% |
| COc1ccc2[nH]c([C@H]3C[C@H](NC(=O)c4ccc5c(c4Cl)OCCO5)CCN3C)nc2c1 [Example 146, 5-chloro-N-[(2R,4R)-2-(5-methoxy-1H-benzimidazol-2-yl)-1-methylpiperidin-4-yl]-2,3-dihydro-1,4-benzodioxine-6-carboxamide triflouroacetate] | 107% |
| CN1CC[C@@H](NC(=O)c2cc3c(cc2Cl)OCCO3)C[C@@H]1c1nc2ccccc2[nH]1 [Example 147, N-[(2R,4R)-2-(1H-benzimidazol-2-yl)-1-methylpiperidin-4-yl]-7-chloro-2,3-dihydro-1,4-benzodioxine-6-carboxamide triflouroacetate] | 69.5% |
| CN1CC[C@@H](NC(=O)c2cc3c(cc2Cl)OCCO3)C[C@@H]1c1nc2cc(Cl)ccc2[nH]1 [Example 148, 7-chloro-N-[(2R,4R)-2-(5-chloro-1H-benzimidazol-2-yl)-1-methylpiperidin-4-yl]-2,3-dihydro-1,4-benzodioxine-6-carboxamide triflouroacetate] | 95% |
| COc1ccc2[nH]c([C@H]3C[C@H](NC(=O)c4cc5c(cc4Cl)OCCO5)CCN3C)nc2c1 [Example 149, 7-chloro-N-[(2R,4R)-2-(5-methoxy-1H-benzimidazol-2-yl)-1-methylpiperidin-4-yl]-2,3-dihydro-1,4-benzodioxine-6-carboxamide triflouroacetate] | 35.3% |
| Cc1ccc(NC(=O)N[C@@H]2CCN(C3CCC3)[C@@H](c3nc4ccccc4[nH]3)C2)cn1 [Example 150, 1-[(2R,4R)-2-(1H-benzimidazol-2-yl)-1-cyclobutyl-piperidin-4-yl]-3-(6-methylpyridin-3-yl)urea triflouroacetate] | 106% |
| Cc1ccc2[nH]c([C@H]3C[C@H](NC(=O)Nc4ccc(C)nc4)CCN3C3CCC3)nc2c1 [Example 151, 1-[(2R,4R)-1-cyclobutyl-2-(5-methy-1H-benzimidazol-2-yl)piperidin-4-yl]-3-(6-methylpyridin-3-yl)urea triflouroacetate] | 107% |
| Cc1ccc(NC(=O)N[C@@H]2CCN(C3CCC3)[C@@H](c3nc4cc(C)c(C)cc4[nH]3)C2)cn1 [Example 152, 1-[(2R,4R)-1-cycobutyl-2-(5,6-dimethy-1H-benzimidazol-2-yl)piperidin-4-yl]-3-(6-methylpyridin-3-yl)urea triflouroacetate] | 106% |
| COc1ccc2[nH]c([C@H]3C[C@H](NC(=O)Nc4ccc(C)nc4)CCN3C3CCC3)nc2c1 [Example 153, 1-[(2R,4R)-1-cyclobutyl-2-(5-methoxy-1H-benzimidazol-2-y1)piperidin-4-yl]-3-(6-methylpyridin-3-yl)urea triflouroacetate] | 107% |
